Laboratory results published in ChEMBL document CHEMBL5032517, “Synthesis of the analogs of plocabulin and their preliminary structure-activity relationship study” (Bioorg Med Chem Lett, 2021).

Legend:
HepG2 [1] = test: Antiproliferative activity against human HepG2 cells assessed as inhibition of cell growth by secondary round CCK8 assay; format: functional, cell-based
HT-29 [2] = test: Antiproliferative activity against human HT-29 cells assessed as inhibition of cell growth by first round CCK8 assay; format: functional, cell-based
Tubulin = test: Inhibition of tubulin polymerization (unknown origin); format: protein-complex assay, Homo sapiens
HepG2 [3] = test: Antiproliferative activity against human HepG2 cells assessed as inhibition of cell growth by first round CCK8 assay; format: functional, cell-based
A549 [4] = test: Antiproliferative activity against human A549 cells assessed as inhibition of cell growth by first round CCK8 assay; format: functional, cell-based
HT-29 [5] = test: Antiproliferative activity against human HT-29 cells assessed as inhibition of cell growth by secondary round CCK8 assay
A549 [6] = test: Antiproliferative activity against human A549 cells assessed as inhibition of cell growth by secondary round CCK8 assay; format: functional, cell-based

SMILES	IC50 (HepG2 [1]) [nM]	IC50 (HT-29 [2]) [nM]	IC50 (Tubulin) [nM]	IC50 (HepG2 [3]) [nM]	IC50 (A549 [4]) [nM]	IC50 (HT-29 [5]) [nM]	IC50 (A549 [6]) [nM]
CC(=O)O[C@H]1C(=O)[C@@]2(C)[C@H]([C@H](OC(=O)c3ccccc3)[C@]3(O)C[C@H](OC(=O)[C@H](O)[C@@H](NC(=O)c4ccccc4)c4ccccc4)C(C)=C1C3(C)C)[C@]1(OC(C)=O)CO[C@@H]1C[C@@H]2O [PACLITAXEL]	10.1						
C/C=C\CC(C/C=C\NC(=O)[C@@H](NC(=O)\C=C/C=C\C(C)=C\[C@H](C)[C@@H]1CC=C(OC)C(=O)O1)C(C)(C)C)OC(N)=O (some centres not stated)	0.36	0.27	3100	1.64	0.72	< 0.2	< 0.2
COC1=CC[C@@H]([C@@H](C)/C=C(C)/C=C\C=C/C(=O)N[C@H](C(=O)N/C=C(/C)CCOC(N)=O)C(C)(C)C)OC1=O			16000				
COC1=CC[C@@H]([C@@H](C)/C=C(C)/C=C\C=C/C(=O)N[C@H](C(=O)N/C=C\CCOC(N)=O)C(C)(C)C)OC1=O		1.1		5.8	2.4		
